In PubChem BioAssay (NCI):
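Growth conditions: 96-well plates. Treatment: test compound, 48 hours, 5 concentrations. Analysis: linear interpolation between bracketing concentrations; unreached endpoints set to highest concentration. Definition used: TGI = concentration required for complete inhibition of growth.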

Legend:
Test in all cases: NCI anticancer screen, dose series, 48 h
786-0 renal = test system: 786-0 renal
A498 renal = test system: A498 renal
A549 NSCLC = test system: A549 NSCLC
ACHN renal = test system: ACHN renal
CAKI-1 renal = test system: CAKI-1 renal
CCRF-CEM leukemia = test system: CCRF-CEM leukemia
COLO 205 colon = test system: COLO 205 colon
DLD-1 colon = test system: DLD-1 colon
DMS 114 small cell lung = test system: DMS 114 small cell lung
EKVX NSCLC = test system: EKVX NSCLC
HCC-2998 colon = test system: HCC-2998 colon
HL-60(TB) leukemia = test system: HL-60(TB) leukemia
HOP-62 NSCLC = test system: HOP-62 NSCLC
HOP-92 NSCLC = test system: HOP-92 NSCLC
HT29 colon = test system: HT29 colon
IGROV1 ovarian = test system: IGROV1 ovarian
K-562 leukemia = test system: K-562 leukemia
KM12 colon = test system: KM12 colon
KM20L2 colon = test system: KM20L2 colon
LOX IMVI melanoma = test system: LOX IMVI melanoma
LXFL 529 NSCLC = test system: LXFL 529 NSCLC
M14 melanoma = test system: M14 melanoma
M19-MEL melanoma = test system: M19-MEL melanoma
MALME-3M melanoma = test system: MALME-3M melanoma
MOLT-4 leukemia = test system: MOLT-4 leukemia
NCI-H226 lung = test system: NCI-H226 lung
NCI-H23 lung = test system: NCI-H23 lung
NCI-H460 lung = test system: NCI-H460 lung
NCI-H522 lung = test system: NCI-H522 lung
OVCAR-3 ovarian = test system: OVCAR-3 ovarian
OVCAR-4 ovarian = test system: OVCAR-4 ovarian
OVCAR-5 ovarian = test system: OVCAR-5 ovarian
OVCAR-8 ovarian = test system: OVCAR-8 ovarian
RPMI-8226 leukemia = test system: RPMI-8226 leukemia
RXF 393 renal = test system: RXF 393 renal
SF-268 CNS = test system: SF-268 CNS
SF-295 CNS = test system: SF-295 CNS
SF-539 CNS = test system: SF-539 CNS
SK-MEL-2 melanoma = test system: SK-MEL-2 melanoma
SK-MEL-28 melanoma = test system: SK-MEL-28 melanoma
SK-MEL-5 melanoma = test system: SK-MEL-5 melanoma
SK-OV-3 ovarian = test system: SK-OV-3 ovarian
SN12C renal = test system: SN12C renal
SNB-19 CNS = test system: SNB-19 CNS
SNB-75 CNS = test system: SNB-75 CNS
SNB-78 CNS = test system: SNB-78 CNS
SW-620 colon = test system: SW-620 colon
TK-10 renal = test system: TK-10 renal
U251 CNS = test system: U251 CNS
UACC-257 melanoma = test system: UACC-257 melanoma
UO-31 renal = test system: UO-31 renal
XF 498 CNS = test system: XF 498 CNS
DMS 273 small cell lung = test system: DMS 273 small cell lung
HCT-116 colon = test system: HCT-116 colon
HCT-15 colon = test system: HCT-15 colon
SR leukemia = test system: SR leukemia

## CCOc1ccccc1NC(=O)C1=C(C)NC(C)=C(C(=O)Nc2ccccc2OCC)C1c1ccc(NC(C)=O)cc1
786-0 renal
  TGI: > 100 µM
A498 renal
  TGI: 88.9 µM
A549 NSCLC
  TGI: > 100 µM
ACHN renal
  TGI: > 100 µM
CAKI-1 renal
  TGI: > 100 µM
CCRF-CEM leukemia
  TGI: > 100 µM
COLO 205 colon
  TGI: 41.1 µM
DLD-1 colon
  TGI: > 100 µM
DMS 114 small cell lung
  TGI: > 100 µM
EKVX NSCLC
  TGI: > 100 µM
HCC-2998 colon
  TGI: 35.7 µM
HL-60(TB) leukemia
  TGI: > 100 µM
HOP-62 NSCLC
  TGI: 49 µM
HOP-92 NSCLC
  TGI: > 100 µM
HT29 colon
  TGI: > 100 µM
IGROV1 ovarian
  TGI: > 100 µM
K-562 leukemia
  TGI: > 100 µM
KM12 colon
  TGI: > 100 µM
KM20L2 colon
  TGI: 98.9 µM
LOX IMVI melanoma
  TGI: > 100 µM
LXFL 529 NSCLC
  TGI: > 100 µM
M14 melanoma
  TGI: > 100 µM
M19-MEL melanoma
  TGI: > 100 µM
MALME-3M melanoma
  TGI: > 100 µM
MOLT-4 leukemia
  TGI: > 100 µM
NCI-H226 lung
  TGI: > 100 µM
NCI-H23 lung
  TGI: > 100 µM
NCI-H460 lung
  TGI: > 100 µM
NCI-H522 lung
  TGI: 23.6 µM
OVCAR-3 ovarian
  TGI: > 100 µM
OVCAR-4 ovarian
  TGI: > 100 µM
OVCAR-5 ovarian
  TGI: > 100 µM
OVCAR-8 ovarian
  TGI: > 100 µM
RPMI-8226 leukemia
  TGI: > 100 µM
RXF 393 renal
  TGI: > 100 µM
SF-268 CNS
  TGI: > 100 µM
SF-295 CNS
  TGI: 71.5 µM
SF-539 CNS
  TGI: > 100 µM
SK-MEL-2 melanoma
  TGI: 58.6 µM
SK-MEL-28 melanoma
  TGI: > 100 µM
SK-MEL-5 melanoma
  TGI: > 100 µM
SK-OV-3 ovarian
  TGI: 67.5 µM
SN12C renal
  TGI: > 100 µM
SNB-19 CNS
  TGI: > 100 µM
SNB-75 CNS
  TGI: 65.6 µM
SNB-78 CNS
  TGI: > 100 µM
SW-620 colon
  TGI: > 100 µM
TK-10 renal
  TGI: > 100 µM
U251 CNS
  TGI: > 100 µM
UACC-257 melanoma
  TGI: > 100 µM
UO-31 renal
  TGI: > 100 µM
XF 498 CNS
  TGI: 43.5 µM

## O=c1n(CCCCn2c(=O)n(CC3CS3)c3ccccc32)c2ccccc2n1CC1CS1 (stereo not given)
ACHN renal
  TGI: 77.6 µM
CAKI-1 renal
  TGI: 35.5 µM
CCRF-CEM leukemia
  TGI: 81.4 µM
COLO 205 colon
  TGI: 35.6 µM
DMS 273 small cell lung
  TGI: 42.7 µM
EKVX NSCLC
  TGI: 76.2 µM
HCC-2998 colon
  TGI: 35.9 µM
HCT-116 colon
  TGI: 39.7 µM
HCT-15 colon
  TGI: 33.2 µM
HL-60(TB) leukemia
  TGI: 6.34 µM
HOP-62 NSCLC
  TGI: 43.9 µM
HOP-92 NSCLC
  TGI: 86.5 µM
IGROV1 ovarian
  TGI: 32 µM
K-562 leukemia
  TGI: 37.5 µM
KM12 colon
  TGI: 24.2 µM
LOX IMVI melanoma
  TGI: 14.4 µM
LXFL 529 NSCLC
  TGI: 33.1 µM
M14 melanoma
  TGI: 23.2 µM
M19-MEL melanoma
  TGI: 45.8 µM
MALME-3M melanoma
  TGI: 22.8 µM
MOLT-4 leukemia
  TGI: 5.82 µM
NCI-H522 lung
  TGI: 31.6 µM
OVCAR-3 ovarian
  TGI: 29.4 µM
OVCAR-4 ovarian
  TGI: 34 µM
RPMI-8226 leukemia
  TGI: 30.3 µM
SF-268 CNS
  TGI: > 100 µM
SK-MEL-2 melanoma
  TGI: 29 µM
SK-OV-3 ovarian
  TGI: > 100 µM
SN12C renal
  TGI: 36.5 µM
SNB-75 CNS
  TGI: 61.4 µM
SR leukemia
  TGI: 21.5 µM
SW-620 colon
  TGI: 39.8 µM
XF 498 CNS
  TGI: 20.6 µM
